Where no end group is shown, it is not given here.
Tests used:
[1] = Degradation of apelin peptides by plasma from fasted normal NIH Swiss mice (rp-HPLC, MALDI-TOF MS); type: in vitro ADME
Method: Degradation of Apelin Peptides by Plasma from Fasted Normal NIH Swiss Mice […] The enzymatic reaction was stopped by adding 50 μl of 10% TFA (0.1% v/v; Sigma-Aldrich Ltd, (Poole, Dorset, UK) and frozen at -20° C. until separation. The terminated reaction products were then applied to an analytical Vydac C-8 column (4.6×150 mm; Phenomenex, Macclesfield, Cheshire, UK) for rp-HPLC analysis. The absorbance was monitored at 214 nm using a […] UV 2000 detector (Thermoquest Limited, Manchester, UK) and the traces were recorded by Thermo Electron ChromQuest data collection software (version 4). HPLC peak fractions were collected manually and subjected to MALDI-TOF mass spectrometry for peptide identification. Degradation profile of various apelin-13 related analogues: plasma incubations (4 h) were separated on a Vydac C-8 analytical HPLC column and all peaks were collected prior to analysis by MALDI-TOF mass spectrometry. Degradation fragments, actual molecular weights (Mr) and retention times (RT) are shown. Theoretical molecular weights of each fragment are shown in brackets. […] Degradation fragments, theoretical molecular weights (Mr) and retention times (RT) are shown. Theoretical molecular weights of each fragment are shown in brackets.

[2] = system: NIH Swiss mice fed a high-fat diet for 150 days; assay: Acute and delayed i.p. glucose tolerance test, blood glucose and plasma insulin; type: in vivo; settings: for Effect on the glucose lowering properties of (Tyr^13)apelin-13 and apelin-13-amide: administered in combination, each 25 nmol/kg
Method: Plasma glucose and plasma insulin concentrations were measured prior to and after i.p. administration of glucose alone (18 mmol/kg body weight), or in combination with apelin analogues (25 nmol/kg body weight) in 18 h fasted mice fed a high-fat diet for 150 days. Values represent mean±SEM for eight mice (n=8). *P<0.05, **P<0.01 and ***P<0.001 compared to glucose alone. FIG. 6 illustrates effect of i.p. administration of glucose alone (18 mmol/kg body weight), ([…])apelin-13 and ([…])apelin-13 alone or in combination (each 25 nmol/kg body weight) on (A) blood glucose and (B) plasma insulin in 18 h fasted mice fed a high-fat diet for 150 days. Values represent mean±SEM for eight mice (n=8). *p<0.05 and **p<0.01 compared to glucose alone, ^+P<0.05 compared to ([…])apelin-13, ^∇P<0.05 and ^∇∇P<0.01 compared to ([…])apelin-13. FIG. 10 illustrates tests conducted 2 h after administration of apelin related analogues (25 nmol/kg body wt) in 18 h fasted mice fed a high-fat diet for 150 days. (A) Blood glucose and (B) plasma insulin was measured before and after i.p. administration of glucose (18 mmol/kg body wt) alone or in combination with apelin analogues. Values represent mean±SEM for eight mice (n=8). *P<0.05 and **P<0.01 compared to glucose alone. FIG. 11 illustrates tests conducted 8 h after administration of apelin related analogues (25 nmol/kg body wt) in 18 h fasted mice fed a high-fat diet for 150 days. (A) Blood glucose and (B) plasma insulin was measured before and after i.p. administration of glucose (18 mmol/kg body wt) alone or in combination with apelin analogues. Values represent mean±SEM for eight mice (n=8). *P<0.05 and **P<0.01 compared to glucose alone. FIG. 12 illustrates acute effects of fatty acid modified apelin analogues on glucose-lowering and insulin release in high fat fed Swiss NIH mice with dietary-induced diabetes. (A) Blood glucose and (B) plasma insulin concentrations were measured prior to and after i.p. administration of glucose alone (18 mmol/kg body weight), or in combination with apelin analogues (25 nmol/kg body weight) in 18 h fasted mice fed a high-fat diet for 150 days. Values represent mean±SEM for eight mice (n=8). *P<0.05, compared to glucose alone. FIG. 13 illustrates tests conducted 16 h after administration of fatty acid apelin analogues (25 nmol/kg body wt) in mice fed a high-fat diet for 150 days. (A) Blood glucose and (B) plasma insulin was measured before and after i.p. administration of glucose (18 mmol/kg body wt) alone or in combination with apelin analogues. Values represent mean±SEM for eight mice (n=8). *P<0.05, **P<0.01 and ***P<0.001 compared to glucose alone. NIH Swiss mice (Harlan UK Ltd., Blackthorne, UK) were derived from a nucleus colony obtained from the National Institute of Health, Bethesda, Md., USA. One group of mice were maintained on a standard rodent diet (10% fat, 30% protein, 60% carbohydrate; percent of total energy 12.99 kJ/g, Trouw Nutrition, Cheshire, UK) and used as a model of normal glycaemia. Other NIH Swiss mice were maintained on a high fat diet (45% fat, 20% protein, 35% carbohydrate; percent of total energy 26.15 […], UK) from 8 weeks of age for 150 days to produce a model of diet induced obesity-diabetes. […] All mice were housed in an air-conditioned room maintained at 22±2° C. with a 12 h light: 12 h dark cycle (08:00-20:00 h), were singly caged, and selected for experimental groups according to body weight and non-fasted blood glucose. Drinking water and diet were freely available. All animal studies were performed in accordance with the UK Animals (Scientific Procedures) Act 1986. For acute in vivo studies, blood samples were collected from the cut tip of the tail vain of fasted, conscious mice into fluoride/heparin coated glucose microcentrifuge tubes (Sarstedt, Germany) immediately prior to (t=0) and at 15, 30, 60 and 105 min following i.p. injection of glucose ([…]).

[3] = NIH Swiss, mouse, plasma, pH 7.4
[4] = acute, alone and in combination, each 25 nmol/kg i.p. with glucose, Table 5
[5] = acute, peptide 25 nmol/kg i.p. with glucose 18 mmol/kg, Table 4
[6] = following a 2 h delay, 25 nmol/kg
[7] = following a 8 h delay, 25 nmol/kg
[8] = fatty acid derived agonists, 16 h delayed i.p. glucose tolerance test, 25 nmol/kg
[9] = fatty acid derived agonists, acute i.p. glucose tolerance test, 25 nmol/kg

Molecule | Degradation fragment, Peak 1 [1] | Rank order of stability [1] | half-life at 263 µg/mL [1, 3] [min] | remaining at 4 h, 263 µg/mL [1, 3] [%] | Rank order on basis of anti-hyperglycaemic efficacy ([2]; acute, Table 4) | Glucose lowering, where glucose alone = 100% [2, 4] | Insulin secretion, where glucose alone = 100% [2, 4] | Blood glucose as percent of glucose-alone control (lower = stronger glucose lowering) [2, 5] | Insulin secretion, where glucose alone = 100% [2, 5] | also measured
CSCC[C@H](NC(=O)[C@@H]1CCCN1C(=O)CNC(=O)[C@H](CCCCN)NC(=O)[C@H](Cc1c[nH]cn1)NC(=O)[C@H](CO)NC(=O)[C@H](CC(C)C)NC(=O)[C@H](CCCNC(=N)N)NC(=O)[C@@H]1CCCN1C(=O)[C@H](CCCNC(=N)N)NC(=O)[C@@H](N)CCC(N)=O)C(=O)N1CCC[C@H]1C(=O)N[C@@H](Cc1ccc(O)cc1)C(=O)O [(Tyr^13)apelin-13] | (Tyr^13)apelin-13 (1-7) | 10 | 510 | 76.7 ± 1.3 | 4 | 77% (*) | 131% (*) | 77% (*) | 131% (*) | Degradation fragment, Peak 2 [1]: (Tyr^13)apelin-13 (1-12); Rank order on basis of anti-hyperglycaemic efficacy ([2]; following a 2 h delay): 4; Blood glucose as percent of glucose-alone control (lower = stronger glucose lowering) [2, 6]: 85% ^; Insulin secretion, where glucose alone = 100% [2, 6]: 116% ^; Rank order on basis of anti-hyperglycaemic efficacy ([2]; following a 8 h delay): 4; Blood glucose as percent of glucose-alone control (lower = stronger glucose lowering) [2, 7]: 91% ^; Insulin secretion, where glucose alone = 100% [2, 7]: 104%
CCCCCCCCCCCCCCCC(=O)N[C@@H](CCC(=O)NCCCC[C@H](NC(=O)[C@H](Cc1c[nH]cn1)NC(=O)[C@H](CO)NC(=O)[C@H](CC(C)C)NC(=O)[C@H](CCCNC(=N)N)NC(=O)[C@@H]1CCCN1C(=O)[C@H](CCCNC(=N)N)NC(=O)[C@@H](N)CCC(N)=O)C(=O)NCC(=O)N1CCC[C@H]1C(=O)N[C@@H](CCSC)C(=O)N1CCC[C@H]1C(=O)N[C@@H](Cc1ccc(O)cc1)C(=O)O)C(=O)O [Lys^8GluPAL(Tyr^13)apelin-13] | – | =1 | > 1440 | 100 | – | – | – | – | – | Half-life (t1/2) ([1]; NIH Swiss, mouse, plasma, 263 µg/mL, pH 7.4): >24 h; Rank order on basis of anti-hyperglycaemic efficacy ([2]; fatty acid derived agonists, 16 h delay): 3; Blood glucose as percent of glucose-alone control (lower = stronger glucose lowering) [2, 8]: 91% ^; Insulin secretion, where glucose alone = 100% [2, 8]: 126% (*); Rank order on basis of anti-hyperglycaemic efficacy ([2]; fatty acid derived agonists, acute): 3; Glucose lowering, where glucose alone = 100% [2, 9]: 93%; Insulin secretion, where glucose alone = 100% [2, 9]: 104%
CSCC[C@H](NC(=O)[C@@H]1CCCN1C(=O)CNC(=O)[C@H](CCCCN)NC(=O)[C@H](Cc1cnc[nH]1)NC(=O)[C@H](CO)NC(=O)[C@H](CC(C)C)NC(=O)[C@H](CCCNC(=N)N)NC(=O)[C@@H]1CCCN1C(=O)[C@H](CCCNC(=N)N)NC(=O)[C@@H]1CCC(=O)N1)C(=O)N1CCC[C@H]1C(=O)N[C@@H](C)C(=O)O [pGlu(Ala^13)apelin-13, pGlu (Ala^13)apelin-13] | (1-7) | 6 | 666 | 74.4 ± 5.2 | 7 | – | – | 110% ^ | 86% (*) | –

More lines, main results first:

Degradation fragment, Peak 1 [1] | Rank order of stability [1] | half-life at 263 µg/mL [1, 3] [min] | remaining at 4 h, 263 µg/mL [1, 3] [%] | Molecule | Rank order on basis of anti-hyperglycaemic efficacy ([2]; acute, Table 4) | Glucose lowering, where glucose alone = 100% [2, 4] | Insulin secretion, where glucose alone = 100% [2, 4] | Blood glucose as percent of glucose-alone control (lower = stronger glucose lowering) [2, 5] | Insulin secretion, where glucose alone = 100% [2, 5] | also measured
(Ala^13)apelin-13 (1-8) | 8 | 618 | 70.5 ± 2.2 | CSCC[C@H](NC(=O)[C@@H]1CCCN1C(=O)CNC(=O)[C@H](CCCCN)NC(=O)[C@H](Cc1c[nH]cn1)NC(=O)[C@H](CO)NC(=O)[C@H](CC(C)C)NC(=O)[C@H](CCCNC(=N)N)NC(=O)[C@@H]1CCCN1C(=O)[C@H](CCCNC(=N)N)NC(=O)[C@@H](N)CCC(N)=O)C(=O)N1CCC[C@H]1C(=O)N[C@@H](C)C(=O)O [(Ala^13)apelin-13, reference compound] | 9 | 118% (*) | 74% (*) | 118% (*) | 74% (**) | Degradation fragment, Peak 2 [1]: (Ala^13)apelin-13 (1-11); Effect on the glucose lowering properties of (Tyr^13)apelin-13 and apelin-13-amide [2]: blocked the glucose lowering properties
(Val^13)apelin-13 (1-12) | 11 | 462 | 66.5 ± 1.1 | CSCC[C@H](NC(=O)[C@@H]1CCCN1C(=O)CNC(=O)[C@H](CCCCN)NC(=O)[C@H](Cc1c[nH]cn1)NC(=O)[C@H](CO)NC(=O)[C@H](CC(C)C)NC(=O)[C@H](CCCNC(=N)N)NC(=O)[C@@H]1CCCN1C(=O)[C@H](CCCNC(=N)N)NC(=O)[C@@H](N)CCC(N)=O)C(=O)N1CCC[C@H]1C(=O)N[C@H](C(=O)O)C(C)C [(Val^13)apelin-13] | 10 | 124% (**) | 68% (**) | 124% (**) | 68% (*) | Effect on the glucose lowering properties of (Tyr^13)apelin-13 and apelin-13-amide [2]: blocked the glucose lowering properties
– | 13 | – | 39.5 ± 1.9 | CSCC[C@H](NC(=O)[C@@H]1CCCN1C(=O)CNC(=O)[C@H](CCCCN)NC(=O)[C@H](Cc1c[nH]cn1)NC(=O)[C@H](CO)NC(=O)[C@H](CC(C)C)NC(=O)[C@H](CCCNC(=N)N)NC(=O)[C@@H]1CCCN1C(=O)[C@@H](N)CCCNC(=N)N)C(=O)N1CCC[C@H]1C(=O)N[C@@H](Cc1ccccc1)C(=O)O [Apelin-12, reference compound] | – | – | – | – | – | half-life ([1]; mouse, plasma): 204 min
– | 15 | 78 | 5.5 ± 0.6 | LVQPRGSRNGPGPWQGGRRKFRRQRPRLSHKGPMPF [Apelin-36, reference compound] | – | – | – | – | – | –

Source: patent publication US10118954B2, “Apelin analogues” (University of Ulster, priority 2014, dated 2018)
